Measured values: patent US20230310390A1, “INHIBITORS OF SHORT-CHAIN DEHYDROGENASE ACTIVITY FOR TREATING NEURODEGENERATION” (CASE WESTERN RESERVE UNIVERSITY, priority 2020, published 2023)

What was measured:
Assay type in all cases: in vivo
eicosanoids [1] = assay: Eicosanoid profiling by LC-MS/MS, brain hemispheres of mice after sham or traumatic brain injury (TBI); details: for eicosanoid values in left hemisphere / eicosanoid values in right hemisphere (trends): 5 mk/kg twice daily for 21 days
Procedure: (§1) Eicosanoids were measured by methods of liquid chromatography with tandem mass spectrometry with the use of spiked in deuterated internal standards. Eicosanoids measured included: the 6-keto-PGF1 alpha (6-keto-PGF1a, a hydrolysis product of and proxy for prostacyclin), thromboxane B2 (TXB2, a metabolite/product of and proxy for thromboxane A2), PGD2, PGE2, 15-keto-PGE2 (produced by 15-PGDH degradation of PGE2), tetranor PGE1 (TN-E, a metabolic product produced by beta-oxidation of PGE2), PGJ2, PGF2 alpha (PGF2a), LTB4, 15-HETE, 12-HETE, 8-HETE, 5-HETE, 17-HDHA, 12,13-DiHOME, 14,15-DHET, 11,12-DHET.
FIGS. 4-6 illustrate graphs showing comparisons of eicosanoid values in brain of wild-type male mice who at 8 weeks of age were subjected to sham or actual traumatic brain injury (TBI) delivered by blast wave to the left skull. 24 hours following sham or actual TBI treatment commenced by injection twice daily with either 5 mk/kg (+)-SW033291 or with matched vehicle control as described in Zhang et al. Science. 2015; 348(6240):aaa2340. PMCID: PMC4481126. Treatment continued for 21 days until mice reached 11 weeks of age. Three hours following the last injection, mice were sacrificed. After sacrifice the right or left hemisphere of the brain was dissected, flash frozen, and powdered, and eicosanoids were extracted in organic solvent for analysis. Values were normalized to the wet weight of the companion contralateral brain hemispheres and are recorded as ng eicosanoid per gm wet weight of tissue.

eicosanoids [2] = assay: Eicosanoid profiling by LC-MS/MS, left hippocampus of wild-type and 5×FAD mice; details: 5 mk/kg twice daily for 4 weeks
Procedure: as §1
FIG. 2 illustrates graphs showing comparison of eicosanoid values in brain of 6 month old male mice that are either wild-type or that are the 5×FAD strain of mice that model Alzheimer's disease. Beginning at 5 months of age both genotypes of mice were injected twice daily with either 5 mk/kg (+)-SW033291 or with matched vehicle control as described in Zhang et al. Science. 2015; 348(6240):aaa2340. PMCID: PMC4481126. Treatment continued twice daily for 4 weeks. Mice were sacrificed at 3 hours following their final injection. After sacrifice the left hippocampus was dissected, flash frozen, and powdered, and eicosanoids were extracted in aqueous buffer for analysis. Protein concentration of the extracts were assayed, and eicosanoid values were recorded as ng eicosanoid per mg protein.

[3] = system: C57/B6 mice exposed to TBI; assay: Morris water maze after TBI; details: for memory / cognitive impairment after TBI (MWM probe): 5 mg/kg twice daily started 24 hours after injury, tested 2 weeks after injury
Procedure: (A) Experimental Timeline: 8 week old C57/B6 mice were exposed to sham-injury or TBI. Twice daily treatment with 5 mg/kg (+)-SW033291 or vehicle was started 24 hours after injury and continued throughout the duration of the experiment. Animals were tested for cognitive performance in the Morris water maze (MWM) 2 weeks after injury. (B) Animals were trained to find the hidden platform in the MWM for 4 consecutive days (4 trials/day), with performance measured as latency to find the hidden platform. […] (C, D) To probe for spatial memory of the learned location of the hidden platform, one day after the final learning day the animals were tested in the same MWM except the platform was removed. Memory was measured as latency to first cross the area where the platform was located and the number of times the animal crossed that area. […] Individual mouse data points are shown on the graph. Data was analyzed using two-way repeated measures ANOVA; * p<0.05, ** p<0.01, *** p<0.001. All data is mean±SEM

[4] = system: C57/B6 mice exposed to TBI; assay: Silver staining for axon degeneration after TBI; details: 3 weeks after TBI, 5 mg/kg twice daily started 24 hours after injury
Procedure: 8 week old C57/B6 mice were exposed to sham-injury or TBI. Twice daily treatment with 5 mg/kg (+)-SW033291, 5 mg/kg (−)-SW033291, or vehicle was started 24 hours after injury and continued throughout the duration of the experiment. Animals were sacrificed by transcardial perfusion 3 weeks after TBI or sham-injury, and fixed brains were processed for silver staining. […] Individual mouse data points are shown on the graph. Data was analyzed using two-way repeated measures ANOVA; * p<0.05, ** p<0.01. All data is mean±SEM.

[5] = following TBI, compared to vehicle treated mice
[6] = sham mice, compared to vehicle treated sham mice
[7] = 5×FAD mice, versus vehicle control treated 5×FAD mice
[8] = MWM probe test, TBI mice, 5 mg/kg twice daily

`CCCC[S+]([O-])c1sc2nc(-c3cccs3)cc(-c3ccccc3)c2c1N` (single isomer, unassigned; (+)) [(+)-SW033291] was tested, and the “left hemisphere values of PGJ2, TN-E, 15-HETE, and 9,10-DiHOME” value (eicosanoids [1]; TBI treated mice versus sham injury vehicle treated mice) was “restoration”, the “eicosanoid values in left hemisphere” value (eicosanoids [1]; [5]) was “significantly increased PGJ2, TN-E, 15-HETE, 8-HETE, 5-HETE, 9,10-DiHOME, and LTB4” and the “eicosanoid values in right hemisphere (trends)” value (eicosanoids [1]; [5]) was “trends toward decreased PGJ2, and TxB2”. The “eicosanoid values in left hemisphere” value (eicosanoids [1]; [6]) was “significantly decreased PGE2, PGF2a, 6-keto-PGF1a, PGD2, PGJ2, TN-E, TxB2, 15-HETE, 12-HETE, 9,10-DiHOME”, the “eicosanoid values in right hemisphere (trends)” value (eicosanoids [1]; [6]) was “a trend toward increased PGE2, 15-keto-PGE2, PGF2a, TN-E, 15-HETE, 12-HETE, 8-HETE, 5-HETE, and LTB4” and the “TXB2 in left hippocampus” value (eicosanoids [2]; [7]) was “significant increase in TXB2”. For the same molecule, the “eicosanoid values in left hippocampus (trends)” value (eicosanoids [2]; [7]) was “a trend to increased 6-keto-PGF1a, PGD2, PGE2, PGJ2, PGF2a”, the “eicosanoid values in left hippocampus (trends)” value (eicosanoids [2]; wild-type mice, versus vehicle treated mice) was “trends for increases in 6-keto-PGF1a, PGD2, PGE2, PGF2a, and 9,10-DiHOME” and the “average latency to crossing the platform area” value [3, 8] was “significantly increased in the vehicle-treated TBI-injured group compared to all other groups”. For the same molecule, the “number of platform crosses” value [3, 8] was “significantly decreased in the vehicle-treated TBI-injured group compared to all other groups”, the “average (escape) latency to find the hidden platform (learning)” value ([3]; TBI and sham-injured mice, 4-day learning period, 5 mg/kg twice daily) was “not different between groups” and the “memory / cognitive impairment after TBI (MWM probe)” value ([3]; TBI mice, 5 mg/kg) was “TBI-injured animals treated with vehicle showed memory deficits compared to the (+)-SW033291-treated TBI group”. The “memory / cognitive impairment after TBI (MWM probe)” value ([3]; TBI mice, listed as (+)-SW033921, 5 mg/kg) was “protects wild type mice from cognitive impairment after TBI”, the “silver staining (axon degeneration)” value ([4]; 5 mg/kg) was “reduced silver staining equivalent to sham-injury-vehicle” and the “silver staining (axon degeneration)” value ([4]; listed as (+)-SW033921, 5 mg/kg) was “protects wild type mice from axon degeneration after TBI”.
